Test results: ChEMBL document CHEMBL1151008, “Synthesis and evaluation of 4-5-dehydro-5-fluoroaristeromycins as S-adenosyl-L-homocysteine (AdoHcy) hydrolase inhibitors” (Bioorg Med Chem Lett, 1992)

Columns and labels:
Adenosylhomocysteinase = molecular target: T1, Adenosylhomocysteinase (Rattus norvegicus, UniProt P10760); test: Compound was tested for its inhibitory activity against recombinant rat liver S-adenosyl-homocysteine hydrolase
T1 sequence (P10760 whole entry): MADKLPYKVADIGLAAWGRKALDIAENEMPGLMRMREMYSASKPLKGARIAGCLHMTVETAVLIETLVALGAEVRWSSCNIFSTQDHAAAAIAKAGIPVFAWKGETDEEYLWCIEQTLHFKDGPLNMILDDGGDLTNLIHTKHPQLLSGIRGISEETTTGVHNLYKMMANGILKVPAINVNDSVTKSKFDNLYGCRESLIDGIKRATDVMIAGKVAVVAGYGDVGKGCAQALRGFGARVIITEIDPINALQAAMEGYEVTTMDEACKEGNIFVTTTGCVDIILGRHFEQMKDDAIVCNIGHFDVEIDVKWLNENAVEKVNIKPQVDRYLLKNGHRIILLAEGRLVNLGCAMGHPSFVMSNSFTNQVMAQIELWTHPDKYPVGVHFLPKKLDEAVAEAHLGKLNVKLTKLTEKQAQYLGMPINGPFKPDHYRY

[1] = molecular target: T2, Adenosylhomocysteinase (Rattus norvegicus) (UniProt P10760)
T2 sequence (whole entry): T1 sequence (P10760 whole entry)
Description: (§1) Rate constant was evaluated against S-adenosyl-homocysteine hydrolase

[2] = molecular target: T2, Adenosylhomocysteinase (Rattus norvegicus); remark: listed apart in the source
Description: as §1

Structure (SMILES)	Ki (Adenosylhomocysteinase) [nM]	k2 [1] [min⁻¹]	k2 [2] [min⁻¹]
Nc1ncnc2c1ncn2[C@@H]1C/C(=C/F)[C@@H](O)[C@H]1O	112	0.031	–
Nc1ncnc2c1ncn2[C@@H]1C/C(=C\F)[C@@H](O)[C@H]1O	87	–	0.05
Nc1ncnc2c1ncn2[C@@H]1O/C(=C\F)[C@@H](O)[C@H]1O	39	–	0.082
Nc1ncnc2c1ncn2[C@@H]1O/C(=C/F)[C@@H](O)[C@H]1O	40	–	0.05
